This note sets out measurements from patent publication US8318808B2, “Zn2+chelating motif-tethered short-chain fatty acids as a novel class of histone deacetylase inhibitors” (The Ohio State University Research Foundation, priority 2007, dated 2012).

Like-named read-outs stand apart in the source and are kept apart here.

Series [1] relates to PC-3 xenograft tumors. Nature of the series: Growth of established subcutaneous PC-3 xenograft tumors. To be noted: for reduction in the growth of the tumors vs vehicle-treated control: 50 mg/kg/day; for suppression of growth of established PC-3 tumors: oral route, 50 and 100 mg/kg/day (either dose).
Experimental: In the in vivo experiment, PC-3 cells, suspended in equal volumes of serum-free medium and Matrigel basement membrane matrix, were injected subcutaneously into the flanks of 5-7 week old male NCr athymic nude mice (nu/nu) (0.5×10^6 cells/0.1 ml/mouse). […] The control group received p.o. or i.p. vehicle only (0.1% methylcellulose/0.05% Tween 80 in water and DMSO, respectively). Treatments continued until the mean tumor volume of the control group reached approximately 1,500 mm^3. Tumors were measured every week using Vernier calipers and their volumes calculated using a standard formula: width^2×length×0.52.
The test system of series [2] is acetylation of histone H-3 in PC-3 xenograft tumors. Put plainly: Western blot of acetylated histone H3 in PC-3 xenograft tumor homogenates. To be noted: 28 days. In kind it is in vivo, mice.
Series [3] concerns phospho-Akt in PC-3 cells (PTEN-/-). Nature of the series: Activation status of Akt in PC-3 cells. To be noted: comparable concentrations. In kind it is cell-based. The source says:
The effect of these agents on the activation status of Akt in PC-3 cells (PTEN^−/−) was also examined. Akt is constitutively activated in PC-3 cells due to lack of functional PTEN, which contributes to the androgen independency and chemotherapeutic resistance of these cells.

A short description of series [4]: Toxicity, body weights and pathological evaluation of treated tumor-bearing mice. In kind it is in vivo, NCr athymic nude mice (nu/nu). To be noted: for body weights: measured weekly, compound 42 or 44 oral 50 and 100 mg/kg/day, SAHA i.p. 50 mg/kg/day. The procedure:
At the conclusion of the study, complete pathological evaluation of one mouse from each treatment group was performed by board-certified veterinary pathologists at The Ohio State University College of Veterinary Medicine, which included clinical pathology (hematology, serum chemistries) and complete necropsy (gross and microscopic examination of at least 27 different tissues and organs). […] Hematological parameters were within normal limits except for a neutrophilia, which was observed only in mice from both vehicle-treated control groups and the SAHA- and compound 44 (50 mg/kg)-treated groups. Serum chemistry values were consistent with mild dehydration in the vehicle-treated mice, but were within normal limits for all other mice.

The test system of series [5] is acetylated histones H3 and H4 and p21WAF/CIP1 in DU-145 cells. Nature of the series: Western blot of histone acetylation and p21WAF/CIP1 expression in DU-145 cells. In kind it is cell-based. To be noted: for levels of acetylated histones H3 and H4, and p21WAF/CIP1: 10% FBS, HTPB 0.5-[…], TSA 0.25-0.5 μM, phenylbutyrate 1-5 mM. The procedure:
Western blot analysis. DU-145 cells (1×10^6) treated with HTPB at the indicated concentrations in 10% FBS-supplemented RPMI 1640 medium for 24 h were collected, and sonicated. Protein concentrations of the lysates were determined by using a Bradford protein assay kit (Bio-Rad, Hercules, Calif.); equivalent amounts of proteins from each lysate were resolved in 10% SDS-polyacrylamide gel, and then transferred onto Immobilon-nitrocellulose membranes (Millipore, Bellerica, Mass.) in a semi-dry transfer cell. The transblotted membrane was washed twice with Tris-buffered saline (TBS) containing 0.1% Tween 20 (TBST). After blocking with TBST containing 5% nonfat milk for 40 min, the membrane was incubated with the primary antibody (1:1000 dilution) in TBST-1% nonfat milk at 4° C. overnight. After treatment with the primary antibody, the membrane was washed three times with TBST for a total of 15 min, followed by goat anti-rabbit or anti-mouse IgG-horseradish peroxidase conjugates (diluted 1:3000) for 1 h at room temperature and wash three times with TBST for a total of 1 h. The immunoblots were visualized by enhanced chemiluminescence.
DU-145 cells were exposed to HTPB at 0.5, 1, 2.5 μM, TSA at 0.25 and 0.5 μM, or phenylbutyrate at 1, 2.5, and 5 mM in 10% FBS-supplemented RPMI 1640 medium for 24 h. […] The effect of 1 μM HTPB on these biomarkers approximated that of 0.25 μM TSA, or 2.5 mM phenylbutyrate.
(In general: A western blot detects proteins with antibodies after separation by electrophoresis.)

In series [6] the target is histone deacetylase (HDAC) activity of DU-145 nuclear extract. Put plainly: In vitro HDAC assay (histone deacetylase assay kit, [3H]-acetyl histone H4 peptide). In kind it is biochemical. The procedure:
In vitro HDAC assay. HDAC activity was analyzed by using a histone deacetylase assay kit (Upstate Biotechnology, Lake Placid, N.Y.) by following the manufacturer's instruction with slight modifications. […] The release of [^3 H]-acetate into the supernatant was measured to calculate the HDAC activity. Sodium butyrate (0.25-1 mM) was used as a positive control.

The test system of series [7] is DU-145 cells. Nature of the series: Apoptosis detection by Cell Death ELISA (nucleosomal DNA). In kind it is cell-based. The procedure: Apoptosis Detection by An Enzyme-Linked Immunosorbent Assay (ELISA). Induction of apoptosis was assessed by using a Cell Death ELISA (Roche Diagnostics, Mannheim, Germany) by following the manufacturer's instruction. This test is based on the quantitative determination of cytoplasmic histone-associated DNA fragments in the form of mononucleosomes and oligonucleosomes after induced apoptotic death. In brief, 1×10^6 DU-145 cells were cultured in a T-75 flask 24 h prior to the experiment. Cells were treated with HTPB at the indicated concentrations in 10% FBS-supplemented RPMI 1640 medium. Both floating and adherent cells were collected, cell lysates equivalent to 2×10^3 cells were used in the ELISA.

Series [8] relates to DU-145 cells. Nature of the series: Cell viability assay (MTT). In kind it is cell-based. To be noted: Homo sapiens, 10% FBS-supplemented RPMI-1640, read-out: IC50 in growth inhibition. The procedure: Cell viability assay. The effect of HTPB on cell viability was assessed by the MTT {[3-(4,5-dimethylthiazol-2-yl)-2,5-diphenyl-2 H-tetrazolium bromide]} assay in 96-well, flat-bottomed plates, in which 4,000 DU-145 cells/well were seeded. Cells were exposed to HTPB at the indicated concentrations in 10% FBS-supplemented RPMI-1640 medium at 37° C. in 5% CO2 for the indicated time. The medium was removed and replaced by 150 μl of 0.5 mg/ml of MTT in RPMI-1640 medium, and cells were incubated in the CO2 incubator at 37° C. for 2 hours. Supernatants were removed from the wells, and the reduced MTT dye was solubilized with 200 μl/well DMSO. Absorbance was determined on a plate reader at 570 nm. Each treatment was repeated in six wells.

For series [9], the system named is 60 cell lines. Nature of the series: Sixty-cell line screening by the NCI Developmental Therapeutics Program. To be noted: average against all 60 cell lines; read-out: average GI50 (50% inhibition of cell growth). In kind it is cell-based.
The subject of series [10] is chronic lymphocytic leukemia (TLC-1 transgenic mouse model). Nature of the series: Pilot in vivo study in TLC-1 transgenic mouse model. To be noted: 100 mg/kg oral gavage, 5 days on/two days off for 4 weeks.
Series [11] concerns JNK. Nature of the series: Phosphorylation level of JNK in PC-3 cells. In kind it is cell-based. The source says:
(§1) This dephosphorylating effect, however, is kinase-specific.

The subject of series [12] is ERKs. Put plainly: Phosphorylation level of ERKs in PC-3 cells. In kind it is cell-based.
Source text: as §1

The test system of series [13] is FAK (focal adhesion kinase). Put plainly: Phosphorylation level of FAK in PC-3 cells. In kind it is cell-based.
Source text: as §1

The subject of series [14] is PC-3 cells. Put plainly: cells. To be noted: Homo sapiens, PC-3, 72 h, read-out: IC50, PC-3 cell proliferation.
Series [15] relates to p38. Nature of the series: Phosphorylation level of p38 in PC-3 cells. In kind it is cell-based.
Source text: as §1

[16] abbreviates: i.p., 50 mg/kg/day, one mouse per group.
Setting [17] is: DU-145 nuclear extract, read-out: HDAC inhibition IC50.
The mark [18] stands for this setting: DU-145 nuclear extract, running text, read-out: HDAC inhibition IC50.
Setting [19] is: Table 1, representative phenylbutyrate-based HDAC inhibitors, read-out: IC50.
Setting [20] is: parent short-chain fatty acid, read-out: HDAC inhibition IC50.

For `O=C(CCCCCCC(=O)Nc1ccccc1)NO` [SAHA, suberoylanilide hydroxamic acid, reference compound], the “reduction in the growth of the tumors vs vehicle-treated control” value in series [1] (i.p.) is recorded as 69.9%. The “acetylation level of histone H3 in PC-3 tumors” value in [2] (i.p., 50 mg/kg/day) is on record as “significant increase”. Further, the “effect on phospho-Akt” value in [3] is on record as “no appreciable effect”. For the same molecule, in [4] (setting [16]), the “gross pathologic abnormalities at necropsy” value is recorded as “small adhesions in the peritoneum” and the hematological parameters result is given as “neutrophilia”. Also, the body weights result in series [4] is “stable throughout the study”.
In the case of `CC(/C=C/C(=O)NO)=C\[C@@H](C)C(=O)c1ccc(N(C)C)cc1` [TSA, trichostatin A], in series [5] (24 h), the “concentration with approximately equal effect on acetylated histones H3/H4 and p21WAF/CIP1” value came to 0.25 µM; the “levels of acetylated histones H3 and H4, and p21WAF/CIP1” value (“levels … and p21WAF/CIP1” for short) was “elevated levels”.
Consider `CCCC(CCC)C(=O)Nc1ccc(CCC(=O)NO)cc1` [compound 8], for which, in series [6] (setting [17]), the IC50 is 5000 nM.
As for `O=C(CCCc1ccccc1)Nc1ccc(C(=O)NO)cc1` [compound 19, N-Hydroxy-4-(4-phenylbutyrylamino)-benzamide], in series [5], the “concentration causing hyperacetylation of histones H-3 and H-4 (as low as)” value was at most 0.5 µM. Moreover, in [5] (24 h), the “concentration at which p21WAF/CIP1 level increased substantially (as low as)” value was at most 0.5 µM. In addition, the “concentration with approximately equal effect on acetylated histones H3/H4 and p21WAF/CIP1” value in series [5] (24 h) turned out to be 1 µM. For the same molecule, the “levels … and p21WAF/CIP1” value in series [5] (24 h) was “elevated levels”. Also, the IC50 is 44 nM in series [6] (setting [17]), 44 nM in [6] (setting [18]), 44 nM in series [6] (setting [19]) and 500 to 1000 nM in series [8]. Further, the “drug concentration above which extensive apoptosis occurred” value in series [7] (24 h) is on record as “exceeded 1 μM”. For the same molecule, the “apoptosis (DNA fragmentation)” value in series [7] (24 h exposure) is listed as “sensitized DU-145 cells to apoptosis in a dose-dependent manner”.
As a reminder, the GI50 is the concentration giving 50% growth inhibition. Regarding `CC(C)C(C(=O)Nc1ccc(C(=O)NO)cc1)c1ccccc1` (stereo not drawn) [compound 42, N-Hydroxy-4-(3-methyl-2-phenyl-butyrylamino)-benzamide], in series [9], the GI50 is 200 nM. In [10], the survival result is listed as “trend toward improved survival” and the toxicity result was “no notable toxicity”. Further, the oral bioavailability result in [1] (mouse, in vivo, po) is recorded as “orally bioavailable”. In series [1], the “suppression of growth of established PC-3 tumors” value is listed as “effective”. Moreover, the “reduction in the growth of the tumors vs vehicle-treated control” value in series [1] (oral) is listed as 70.4%. In addition, in [1] (oral, 100 mg/kg/day), the “reduction in PC-3 tumor growth” value came to 91.7%. In series [11], the “phosphorylation level of JNK” value is listed as “remained unaffected”. Besides, the “acetylation level of histone H3 in PC-3 tumors” value in series [2] (oral, 50 or 100 mg/kg/day) was “significant increase”. For the same molecule, the “toxicity in tumor-bearing mice” value in series [4] (28-day course at 50 or 100 mg/kg/day) was “no demonstrable toxicity”. The body weights entry in [4] is reported as “stable throughout the study”. In addition, the “overt toxicity (body weights and pathological examination)” value in series [4] (oral, 100 mg/kg/day) is given as “absence of overt toxicity”. Besides, the “phosphorylation level of ERKs” value in series [12] was “diminished in a dose-dependent manner”. Besides, the “phosphorylation level of FAK” value in series [13] was “diminished in a dose-dependent manner”. Further, the IC50 in [14] is 600 nM. Besides, the “phosphorylation level of p38” value in [15] is listed as “remained unaffected”.
As to `CC(C)(CCc1ccccc1)C(=O)Nc1ccc(C(=O)NO)cc1` [compound 44, 4-(2,2-Dimethyl-4-phenyl-butyrylamino)-N-hydroxy-benzamide], in [1], the “suppression of growth of established PC-3 tumors” value is listed as “effective”. Besides, the body weights result in series [4] is listed as “stable throughout the study”. Further, the hematological parameters entry in series [4] (oral, 50 mg/kg, one mouse per group) is reported as “neutrophilia”. Further, the IC50 amounted to 32 nM in [6] (setting [18]) and 800 nM in series [14].
For `Nc1ccccc1NC(=O)c1ccc(NC(=O)CCCc2ccccc2)cc1` [compound 55, N-(2-Amino-phenyl)-4-(4-phenyl-butyrylamino)-benzamide], the IC50 in series [6] (setting [17]) was found to be 400 nM. Also, the “drop in HDAC inhibitory potency when hydroxamate of compound 19 is replaced by phenylenediamine” value in [6] (relative to compound 19) amounted to 10 fold.
`CC[C@@H](C(=O)Nc1ccc(C(=O)NO)cc1)c1ccccc1` [compound 61, N-hydroxy-4-[2-(R)-phenylbutyrylamino]-benzamide]: the IC50 in [6] (setting [19]) amounted to 38 nM.
For the molecule `CCCC(CCC)C(=O)O` [valproic acid, reference compound], the IC50 in [6] (setting [20]) turned out to be 400000 nM.
As to phenylbutyrate, in series [5], the “concentration required for the same effects on histone acetylation and p21WAF/CIP1 expression” value was “at least 2.5 mM”. Also, in series [5] (24 h), the “concentration with approximately equal effect on acetylated histones H3/H4 and p21WAF/CIP1” value stood at 2500 µM; the “levels … and p21WAF/CIP1” value was “elevated levels”. In addition, the IC50 in series [6] (setting [20]) came out at 400000 nM.
